In patent US12509451B2, “Heteroaryl amide inhibitors of CD38” (NAPA THERAPEUTICS LTD., priority 2020, dated 2025):

Assays:
[1] = system: human liver microtissues (hepatocytes, Kupffer cells, endothelial and stellate cells) in NASH induction media; test: Human 3D NASH model (InSphero Human 3D InSight), release of inflammatory markers; assay type: cell-based; settings: supernatant, day 5
Method: The efficacy of Compound 35 was also determined in a NASH model (see InSphero Human 3D InSight™ Brunswick, ME) to investigate the effect of the molecule on the pathophysiological phenotype of NASH such as release of inflammatory markers. The microtissue model used is a co-culture of 4 different cell types of human liver cells (hepatocytes, Kupffer cells, endothelial and stellate cells) cultured for 10 days in a NASH induction media containing FFA, LPS and high levels of sugars. In the LEAN group the microtissues were cultured for 10 days in physiological-like medium. The reference compound, Selonsertib, a selective ASK1 inhibitor, was used as a down regulator of inflammatory markers. Cytokine and chemokine release in the supernatant were measured at day 5 using Magnetic Luminex® Assay (R&D Systems).

[2] = target: T1, recombinant rat CD38 Protein (Rattus norvegicus, UniProt Q64244); test: Fluorescence-based NAD+ hydrolase activity assay with rat recombinant CD38 protein (Assay 6); assay type: biochemical; settings: read-out: Assay 6 Arithmetic mean IC50
T1 construct: purchased Sino Biological
T1 sequence (Q64244 1-303): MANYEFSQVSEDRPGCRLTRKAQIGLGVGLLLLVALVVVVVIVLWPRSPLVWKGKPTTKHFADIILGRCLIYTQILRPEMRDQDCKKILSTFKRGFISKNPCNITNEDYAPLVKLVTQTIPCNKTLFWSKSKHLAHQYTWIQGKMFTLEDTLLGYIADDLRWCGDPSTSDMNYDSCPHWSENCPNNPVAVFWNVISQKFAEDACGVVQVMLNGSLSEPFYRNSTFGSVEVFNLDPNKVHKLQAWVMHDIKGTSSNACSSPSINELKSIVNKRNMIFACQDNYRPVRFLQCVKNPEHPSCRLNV
Method: This protocol was modified from the following references: Muller et al. (1983); Schultz et al. (2018); Matalonga et al. (2017); and de Oliveira et al. (2018), supra.
NAD+ hydrolase activity of the rat recombinant CD38 protein treated with test compounds was measured using a fluorescence-based assay. Briefly, recombinant rat CD38 Protein (Sino Biological) was resuspended in 44 μl/well of Sucrose-Tris Buffer (Sucrose 0.25 M, Tris pH 7.4 40 mM) and plated in a 96 well black plate (CORNING) at a density of 2.5 ng/well.
Each test compound was received in a powder state and dissolved in DMSO as a 25 mM stock solution. Each test compound was serially diluted in order to generate a dose-response curve. […]
The reaction was started adding nicotinamide 1,N^6-etheno-adenine dinucleotide (Sigma Aldrich) to reach a final concentration of 80 µM. The samples were excited at 321-15 nm and the emission of fluorescence was measured at 410-20 nm at 37° C. every minute for 1 hr in a Clariostar Microplate® reader (BMG LABTECH). NAD+ hydrolase activity was calculated as the slope of the linear portion of the fluorescence-time curve using the MARS data analysis software (BMG LABTECH). The data were uploaded in the Collaborative Drug Design (CDD) Software and for each compound the IC50 was calculated by the software. […] For each plate, the z-factor was also calculated as a plate quality using the CDD software.

CD38 [3] = target: T2, CD38 (Mus musculus, UniProt P56528); test: LPS-induced inflammation in mice, cytokines quantification in plasma; assay type: in vivo
T2 construct: aged mice (male C57BL6/J, 22 months old) were fasted for 4 hr; from tissue; host or cells: C57BL6/J mice (aged, DIO obese or LPS-challenged); liver, spleen, plasma
T2 sequence (P56528 1-304): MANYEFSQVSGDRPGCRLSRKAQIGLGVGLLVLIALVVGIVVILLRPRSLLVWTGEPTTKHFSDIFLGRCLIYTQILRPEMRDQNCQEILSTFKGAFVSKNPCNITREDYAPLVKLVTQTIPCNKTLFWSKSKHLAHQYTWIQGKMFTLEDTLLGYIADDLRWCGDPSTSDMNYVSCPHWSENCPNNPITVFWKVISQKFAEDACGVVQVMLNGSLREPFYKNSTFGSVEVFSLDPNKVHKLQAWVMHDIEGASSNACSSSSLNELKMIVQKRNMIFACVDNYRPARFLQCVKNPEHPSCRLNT
Method: (§1) The in vivo efficacy of Compound 39 against the human CD38 enzyme after LPS challenge was assessed. The effects of Compound 39 (10 mg/kg and 30 mg/kg) on inflammato cytokines, inflammation markers and NAD+ levels at 4 h and 8 h points after LPS-induced inflammation in 12 weeks old male C57BL/6J mice were evaluated.
(§2) Animals were euthanized by terminal cardiac blood puncture immediately after terminal CO2, 4 h and 8 h after LPS administration. At necropsy, the tissues (Liver, Plasma, Spleen, Kidney, Lungs, Heart, Visceral Adipose Tissue, Muscle-Gastrocnemius) were collected and quick frozen in liquid nitrogen. The blood was collected in a BD Microtainer® K2EDTA Additive Tube, centrifuge at 1000 g for 10 min at 4° C. and plasma was store at −80° C.).

CD38 [4] = target: T2, CD38; test: LPS-induced inflammation in mice, MS analysis of NAD+ metabolism in spleen and liver; assay type: in vivo
Method: as §1, §2

[5] = 4 hour post LPS challenge, 10 mg/kg
[6] = 4 hour post LPS challenge, 30 mg/kg
[7] = 8 h post LPS challenge, 10 mg/kg and 30 mg/kg
[8] = 30 mg/kg, 8 hours post LPS challenge

SMILES | release of NASH-induced inflammatory marker IL-8 [1] | release of NASH-induced inflammatory marker IP-10/CXCL-10 [1] | release of NASH-induced inflammatory marker MIP-1α/CCL3 [1] | release of NASH-induced inflammatory marker TNFα [1] | IC50 [2] | decrease of plasma IL-6 (CD38 [3]; [5]) | decrease of plasma TNFα (CD38 [3]; [5]) | plasma IP-10 (CD38 [3]; 4 hour post LPS challenge, 10 mg/kg and 30 mg/kg) | decrease of plasma IL-6 (CD38 [3]; [6]) | decrease of plasma TNFα (CD38 [3]; [6]) | plasma IL-6 (CD38 [3]; [7]) | plasma IP-10 (CD38 [3]; [7]) | plasma TNFα (CD38 [3]; [7]) | increase of NAD+ levels in liver (CD38 [4]; 10 mg/kg, 8 hours post LPS challenge) | decrease of NAM levels in liver (CD38 [4]; [8]) | increase of NAD+ levels in spleen (CD38 [4]; [8]) | decrease in ADPR levels in spleen (CD38 [4]; 30 mg/kg, 8 h treatment) | ADPR levels in liver (CD38 [4]; treatment arms, 4 hours post LPS challenge)
COc1cc(C(=O)Nc2ccnc(C(F)(F)F)c2)nc(-n2ccnc2)c1 [Compound 35, 6-(1H-imidazol-1-yl)-4-methoxy-N-(2-(trifluoromethyl)pyridin-4-yl)picolinamide] | effectiveness in downregulating | effectiveness in downregulating | effectiveness in downregulating | effectiveness in downregulating | – | – | – | – | – | – | – | – | – | – | – | – | – | –
COCCOc1cc(C(=O)Nc2ccnc(C(F)(F)F)c2)nc(-n2ccnc2)n1 [Compound 39, 2-(1H-imidazol-1-yl)-6-(2-methoxyethoxy)-N-(2-(trifluoromethyl)pyridin-4-yl)pyrimidine-4-carboxamide] | – | – | – | – | 1 to 50 nM | 43% | 22% | statistically significant decrease | 75% | 58% | statistically significant decrease | statistically significant decrease | statistically significant decrease | 2 fold | 38% | 2.3 fold | 40% | decrease
